In data set [1] the target is Sodium-dependent noradrenaline transporter (Homo sapiens, UniProt P23975). As to the kind of experiment: Binding affinity to human NET by SPA.
Data set [2] concerns the target Sodium-dependent serotonin transporter (Homo sapiens, UniProt P31645). As to the kind of experiment: Binding affinity to human SERT by SPA.
For a further data set, the target named is Prolyl hydroxylase EGLN3 (Homo sapiens, UniProt Q9H6Z9). As to the kind of experiment: Inhibition of human EGLN3 by TR-FRET assay. A general note: In TR-FRET formats the signal depends on donor and acceptor labels being close together.
Data set [3] has as its target Acetylcholine receptor subunit alpha (Homo sapiens, UniProt P02708). As to the kind of experiment: Antagonist activity at human alpha 1 nAChR by intracellular Ca fluorescence assay. The data set is classed as cell-based.
The target in data set [4] is Prostaglandin G/H synthase 2 (Homo sapiens, UniProt P35354). Put plainly: Inhibition of human COX-2 by FLINT assay.
The next data set addresses Histone deacetylase 2 (Homo sapiens, UniProt Q92769). As to the kind of experiment: Inhibition of human HDAC2 by FLINT assay.
For data set [5], the target named is Amine oxidase [flavin-containing] B (Homo sapiens, UniProt P27338). As to the kind of experiment: Inhibition of human MAOB by FLINT assay.
The target in another data set is hERG (KCNH2) (Homo sapiens, UniProt Q12809). Put plainly: Blockade of human KCNH2 by electrophysiology assay. Type of data set: toxicity.
For data set [6], the target named is Beta-2 adrenergic receptor (Homo sapiens, UniProt P07550). As to the kind of experiment: Agonist activity at human beta2 adrenoceptor by TR-FRET assay. The data set is classed as functional.
A further data set addresses Vasopressin V1a receptor (Homo sapiens, UniProt P37288). Put plainly: Antagonist activity at human vasopressin V1a by intracellular Ca luminescence assay. Type of data set: functional, cell-based.
Data set [7] can be described thus: Agonist activity at human 5-HT3 by intracellular Ca fluorescence assay. Type of data set: cell-based.
Data set [8] concerns the target T1, Muscarinic acetylcholine receptor M1 (Homo sapiens, UniProt P11229).
T1 sequence (P11229 whole entry): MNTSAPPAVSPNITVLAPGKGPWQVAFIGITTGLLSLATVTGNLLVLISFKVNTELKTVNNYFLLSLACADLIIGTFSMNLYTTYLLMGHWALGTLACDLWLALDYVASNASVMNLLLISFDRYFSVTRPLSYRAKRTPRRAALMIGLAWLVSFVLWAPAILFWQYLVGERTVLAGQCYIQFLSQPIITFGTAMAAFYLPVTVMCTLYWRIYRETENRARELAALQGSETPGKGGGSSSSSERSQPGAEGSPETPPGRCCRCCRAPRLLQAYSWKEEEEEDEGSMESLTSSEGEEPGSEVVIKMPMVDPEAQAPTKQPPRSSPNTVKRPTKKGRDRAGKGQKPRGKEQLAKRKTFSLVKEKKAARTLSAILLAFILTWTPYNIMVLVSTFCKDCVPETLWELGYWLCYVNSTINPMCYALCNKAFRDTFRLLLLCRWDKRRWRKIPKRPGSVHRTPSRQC
As to the kind of experiment: Agonist activity at human CHRM1 by intracellular Ca fluorescence assay. The data set is classed as functional, cell-based.

The next data set concerns the target Histamine H1 receptor (Homo sapiens, UniProt P35367). Put plainly: Antagonist activity at human HRH1 by intracellular Ca luminescence assay. Type of data set: functional, cell-based.
Data set [9] addresses Alpha-1B adrenergic receptor (Homo sapiens, UniProt P35368). As to the kind of experiment: Antagonist activity at human adrenergic alpha 1B by intracellular Ca luminescence assay. Type of data set: functional, cell-based.
A further data set concerns the target Histone deacetylase 9 (Homo sapiens, UniProt Q9UKV0). As to the kind of experiment: Inhibition of human HDAC9 by FLINT assay.
Data set [10] has as its target Protein deacetylase HDAC6 (Homo sapiens, UniProt Q9UBN7). As to the kind of experiment: Inhibition of human HDAC6 by FLINT assay.
Data set [11] has as its target T1, Muscarinic acetylcholine receptor M1. Put plainly: Antagonist activity at human CHRM1 by intracellular Ca fluorescence assay. The data set is classed as functional, cell-based.
Data set [12] relates to Macrophage. Put plainly: Antiinflammatory activity in human primary macrophages assessed as effect on LPS-induced LTB gene expression at 30 uM measured after 2 hrs by RT-PCR array (reference value: 6025 a.u.). The data set is classed as functional.
Data set [13] deals with Macrophage. Put plainly: Antiinflammatory activity in human primary macrophages assessed as effect on LPS-induced FASLG gene expression at 30 uM measured after 2 hrs by RT-PCR array (reference value: 73 a.u.). Type of data set: functional.
The subject of data set [14] is Macrophage. Put plainly: Antiinflammatory activity in human primary macrophages assessed as effect on LPS-induced TXLNA gene expression at 30 uM measured after 2 hrs by RT-PCR array (reference value: 8115 a.u.). Type of data set: functional.
The test system of data set [15] is Macrophage. Put plainly: Antiinflammatory activity in human primary macrophages assessed as effect on LPS-induced BMP1 gene expression at 30 uM measured after 2 hrs by RT-PCR array (reference value: 3930 a.u.). The data set is classed as functional.
Data set [16] concerns Macrophage. As to the kind of experiment: Antiinflammatory activity in human primary macrophages assessed as effect on LPS-induced IL1F6 gene expression at 30 uM measured after 2 hrs by RT-PCR array (reference value: 145 a.u.). Type of data set: functional.
Data set [17] relates to Macrophage. As to the kind of experiment: Antiinflammatory activity in human primary macrophages assessed as effect on LPS-induced GDF11 gene expression at 30 uM measured after 2 hrs by RT-PCR array (reference value: 115 a.u.). Type of data set: functional.
The subject of data set [18] is Macrophage. Put plainly: Antiinflammatory activity in human primary macrophages assessed as effect on LPS-induced TNFSF4 gene expression at 30 uM measured after 2 hrs by RT-PCR array (reference value: 880 a.u.). Type of data set: functional.
For data set [19], the system named is Macrophage. As to the kind of experiment: Antiinflammatory activity in human primary macrophages assessed as effect on LPS-induced GDF9 gene expression at 30 uM measured after 2 hrs by RT-PCR array (reference value: 113 a.u.). Type of data set: functional.
Data set [20] concerns Macrophage. As to the kind of experiment: Antiinflammatory activity in human primary macrophages assessed as effect on LPS-induced CD70 gene expression at 30 uM measured after 2 hrs by RT-PCR array (reference value: 2415 a.u.). Type of data set: functional.
The test system of data set [21] is Macrophage. As to the kind of experiment: Antiinflammatory activity in human primary macrophages assessed as effect on LPS-induced BMP8B gene expression at 30 uM measured after 2 hrs by RT-PCR array (reference value: 1117 a.u.). The data set is classed as functional.
The subject of data set [22] is Macrophage. As to the kind of experiment: Antiinflammatory activity in human primary macrophages assessed as effect on LPS-induced LTA gene expression at 30 uM measured after 2 hrs by RT-PCR array (reference value: 11322 a.u.). The data set is classed as functional.
Data set [23] relates to Macrophage. Put plainly: Antiinflammatory activity in human primary macrophages assessed as effect on LPS-induced CSF1 gene expression at 30 uM measured after 2 hrs by RT-PCR array (reference value: 287895 a.u.). Type of data set: functional.
Data set [24] relates to Macrophage. Put plainly: Antiinflammatory activity in human primary macrophages assessed as effect on LPS-induced GAPDH gene expression at 30 uM measured after 2 hrs by RT-PCR array (reference value: 1352294 a.u.). The data set is classed as functional.
Data set [25] deals with Macrophage. As to the kind of experiment: Antiinflammatory activity in human primary macrophages assessed as effect on LPS-induced IFNA4 gene expression at 30 uM measured after 2 hrs by RT-PCR array (reference value: 28 a.u.). The data set is classed as functional.
The subject of data set [26] is Macrophage. Put plainly: Antiinflammatory activity in human primary macrophages assessed as effect on LPS-induced IL1F5 gene expression at 30 uM measured after 2 hrs by RT-PCR array (reference value: 2464 a.u.). The data set is classed as functional.
Data set [27] deals with Macrophage. As to the kind of experiment: Antiinflammatory activity in human primary macrophages assessed as effect on LPS-induced IL10 gene expression at 30 uM measured after 2 hrs by RT-PCR array (reference value: 47621 a.u.). The data set is classed as functional.

Sequence of Prolyl hydroxylase EGLN3 (Q9H6Z9 whole entry): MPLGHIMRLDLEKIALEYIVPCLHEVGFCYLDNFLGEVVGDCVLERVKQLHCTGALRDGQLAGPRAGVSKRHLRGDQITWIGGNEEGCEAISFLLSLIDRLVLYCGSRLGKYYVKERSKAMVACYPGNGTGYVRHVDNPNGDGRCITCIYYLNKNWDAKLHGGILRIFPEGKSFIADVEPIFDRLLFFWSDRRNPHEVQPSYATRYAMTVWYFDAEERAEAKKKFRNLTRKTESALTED
Sequence of Protein deacetylase HDAC6 (Q9UBN7 whole entry): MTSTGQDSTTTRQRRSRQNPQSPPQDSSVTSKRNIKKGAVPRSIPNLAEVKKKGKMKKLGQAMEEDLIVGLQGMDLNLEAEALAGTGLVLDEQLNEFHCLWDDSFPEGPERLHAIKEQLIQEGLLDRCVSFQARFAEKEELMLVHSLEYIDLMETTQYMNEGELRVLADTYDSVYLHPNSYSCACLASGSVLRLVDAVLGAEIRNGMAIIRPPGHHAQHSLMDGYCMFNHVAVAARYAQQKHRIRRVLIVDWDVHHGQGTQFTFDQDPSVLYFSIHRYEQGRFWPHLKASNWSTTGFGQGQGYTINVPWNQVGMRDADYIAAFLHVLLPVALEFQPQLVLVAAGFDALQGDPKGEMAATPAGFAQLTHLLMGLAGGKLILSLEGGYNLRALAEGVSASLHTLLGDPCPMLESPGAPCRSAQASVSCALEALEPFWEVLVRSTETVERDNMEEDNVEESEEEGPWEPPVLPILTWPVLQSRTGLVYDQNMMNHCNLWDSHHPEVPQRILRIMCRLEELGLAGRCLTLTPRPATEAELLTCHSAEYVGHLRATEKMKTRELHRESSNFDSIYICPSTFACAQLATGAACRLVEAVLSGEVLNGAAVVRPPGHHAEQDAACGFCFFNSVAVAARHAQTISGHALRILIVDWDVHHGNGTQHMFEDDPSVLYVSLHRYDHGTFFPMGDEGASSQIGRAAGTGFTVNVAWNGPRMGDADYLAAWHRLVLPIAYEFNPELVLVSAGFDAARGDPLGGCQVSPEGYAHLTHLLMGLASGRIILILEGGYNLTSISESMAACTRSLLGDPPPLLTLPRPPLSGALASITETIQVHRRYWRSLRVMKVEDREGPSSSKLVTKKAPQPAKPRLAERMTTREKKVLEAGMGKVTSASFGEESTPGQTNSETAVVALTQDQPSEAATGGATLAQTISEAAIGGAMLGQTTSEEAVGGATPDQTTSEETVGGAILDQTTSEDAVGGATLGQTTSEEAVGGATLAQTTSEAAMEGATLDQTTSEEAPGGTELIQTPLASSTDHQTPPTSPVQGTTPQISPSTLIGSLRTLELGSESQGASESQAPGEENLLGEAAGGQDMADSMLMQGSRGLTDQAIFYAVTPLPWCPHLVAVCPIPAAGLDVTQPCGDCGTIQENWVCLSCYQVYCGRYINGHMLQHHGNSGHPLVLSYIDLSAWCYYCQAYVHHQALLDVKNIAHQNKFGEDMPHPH
Sequence of Beta-2 adrenergic receptor (P07550 whole entry): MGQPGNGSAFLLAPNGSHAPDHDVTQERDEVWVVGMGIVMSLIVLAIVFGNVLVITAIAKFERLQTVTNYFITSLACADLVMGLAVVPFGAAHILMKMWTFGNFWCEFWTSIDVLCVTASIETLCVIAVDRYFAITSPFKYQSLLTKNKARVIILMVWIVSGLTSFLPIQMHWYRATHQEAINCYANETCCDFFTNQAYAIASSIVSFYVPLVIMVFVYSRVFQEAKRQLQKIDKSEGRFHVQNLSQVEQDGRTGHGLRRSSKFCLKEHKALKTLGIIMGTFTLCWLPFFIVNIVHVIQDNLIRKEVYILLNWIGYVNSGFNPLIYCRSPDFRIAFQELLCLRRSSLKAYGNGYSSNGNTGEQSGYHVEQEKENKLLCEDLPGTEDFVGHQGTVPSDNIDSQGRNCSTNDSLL
Sequence of Sodium-dependent noradrenaline transporter (P23975 whole entry): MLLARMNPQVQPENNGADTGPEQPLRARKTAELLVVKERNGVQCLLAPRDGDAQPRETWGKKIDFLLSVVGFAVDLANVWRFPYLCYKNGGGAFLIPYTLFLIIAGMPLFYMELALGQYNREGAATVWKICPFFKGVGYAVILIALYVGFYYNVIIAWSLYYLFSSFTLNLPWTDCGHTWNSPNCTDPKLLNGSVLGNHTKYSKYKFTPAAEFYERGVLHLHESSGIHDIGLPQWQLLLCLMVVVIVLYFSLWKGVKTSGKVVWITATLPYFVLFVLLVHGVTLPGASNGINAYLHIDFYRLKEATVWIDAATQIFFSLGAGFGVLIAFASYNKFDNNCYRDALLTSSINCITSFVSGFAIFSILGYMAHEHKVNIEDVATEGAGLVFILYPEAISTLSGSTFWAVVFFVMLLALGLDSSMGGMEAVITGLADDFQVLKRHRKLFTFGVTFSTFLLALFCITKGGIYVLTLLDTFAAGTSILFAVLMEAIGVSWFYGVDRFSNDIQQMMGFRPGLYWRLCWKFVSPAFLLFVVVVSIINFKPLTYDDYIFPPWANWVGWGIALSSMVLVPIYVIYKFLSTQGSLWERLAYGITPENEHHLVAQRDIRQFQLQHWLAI
Sequence of Sodium-dependent serotonin transporter (P31645 whole entry): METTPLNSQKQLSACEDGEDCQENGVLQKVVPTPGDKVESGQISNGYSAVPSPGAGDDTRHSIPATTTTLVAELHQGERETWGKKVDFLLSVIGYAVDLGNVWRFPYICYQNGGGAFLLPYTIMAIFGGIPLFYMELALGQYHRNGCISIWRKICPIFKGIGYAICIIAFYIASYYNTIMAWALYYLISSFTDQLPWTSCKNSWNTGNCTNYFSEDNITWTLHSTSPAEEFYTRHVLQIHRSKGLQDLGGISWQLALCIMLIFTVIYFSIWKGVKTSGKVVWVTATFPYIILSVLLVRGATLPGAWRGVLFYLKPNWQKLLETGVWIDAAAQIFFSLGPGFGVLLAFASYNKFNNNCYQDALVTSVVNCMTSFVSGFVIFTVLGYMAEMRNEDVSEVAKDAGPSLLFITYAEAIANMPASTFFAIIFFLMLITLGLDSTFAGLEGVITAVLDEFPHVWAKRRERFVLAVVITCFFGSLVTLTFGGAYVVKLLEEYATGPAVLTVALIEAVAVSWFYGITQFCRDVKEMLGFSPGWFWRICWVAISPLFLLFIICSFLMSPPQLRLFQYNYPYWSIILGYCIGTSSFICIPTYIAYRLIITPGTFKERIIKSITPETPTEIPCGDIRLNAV
Sequence of Acetylcholine receptor subunit alpha (P02708 whole entry): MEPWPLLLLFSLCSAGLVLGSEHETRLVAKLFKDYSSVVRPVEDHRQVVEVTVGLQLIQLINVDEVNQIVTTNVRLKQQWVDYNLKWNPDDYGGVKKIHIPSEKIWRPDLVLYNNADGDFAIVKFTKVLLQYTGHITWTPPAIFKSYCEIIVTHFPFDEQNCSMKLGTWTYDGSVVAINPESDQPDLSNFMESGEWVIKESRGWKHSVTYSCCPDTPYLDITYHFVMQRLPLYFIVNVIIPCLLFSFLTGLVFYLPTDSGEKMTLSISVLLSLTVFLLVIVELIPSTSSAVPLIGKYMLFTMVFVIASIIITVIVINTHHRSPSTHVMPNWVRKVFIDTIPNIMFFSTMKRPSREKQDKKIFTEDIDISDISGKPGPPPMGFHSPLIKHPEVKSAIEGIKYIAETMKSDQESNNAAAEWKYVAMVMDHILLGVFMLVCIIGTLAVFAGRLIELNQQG
Sequence of Histone deacetylase 2 (Q92769 whole entry): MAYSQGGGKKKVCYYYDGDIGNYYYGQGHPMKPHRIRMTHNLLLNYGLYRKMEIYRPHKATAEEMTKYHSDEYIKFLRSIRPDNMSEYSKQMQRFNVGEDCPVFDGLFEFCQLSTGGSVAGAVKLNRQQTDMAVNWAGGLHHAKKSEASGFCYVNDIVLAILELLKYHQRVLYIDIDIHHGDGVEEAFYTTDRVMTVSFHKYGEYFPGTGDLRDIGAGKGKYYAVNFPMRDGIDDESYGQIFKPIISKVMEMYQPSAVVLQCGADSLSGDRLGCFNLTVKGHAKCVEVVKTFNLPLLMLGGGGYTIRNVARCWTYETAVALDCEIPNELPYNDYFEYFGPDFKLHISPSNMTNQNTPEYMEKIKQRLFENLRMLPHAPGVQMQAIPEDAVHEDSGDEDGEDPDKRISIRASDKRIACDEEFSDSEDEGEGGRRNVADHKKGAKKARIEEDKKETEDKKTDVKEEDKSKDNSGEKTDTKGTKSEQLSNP
Sequence of Amine oxidase [flavin-containing] B (P27338 whole entry): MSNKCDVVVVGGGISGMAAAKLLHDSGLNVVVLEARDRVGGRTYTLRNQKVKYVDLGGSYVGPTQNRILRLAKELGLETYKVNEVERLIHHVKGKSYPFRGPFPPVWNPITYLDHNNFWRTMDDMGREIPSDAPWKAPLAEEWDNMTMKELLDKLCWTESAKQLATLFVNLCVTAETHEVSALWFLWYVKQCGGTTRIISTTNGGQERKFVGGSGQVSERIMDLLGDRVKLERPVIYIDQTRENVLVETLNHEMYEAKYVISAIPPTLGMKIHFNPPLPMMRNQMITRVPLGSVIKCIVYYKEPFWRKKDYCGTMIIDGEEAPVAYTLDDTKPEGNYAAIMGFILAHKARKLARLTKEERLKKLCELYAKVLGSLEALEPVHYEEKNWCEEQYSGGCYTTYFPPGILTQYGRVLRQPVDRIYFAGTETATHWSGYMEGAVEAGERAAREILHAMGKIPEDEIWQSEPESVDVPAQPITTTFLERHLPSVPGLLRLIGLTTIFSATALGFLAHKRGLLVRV
Sequence of Vasopressin V1a receptor (P37288 whole entry): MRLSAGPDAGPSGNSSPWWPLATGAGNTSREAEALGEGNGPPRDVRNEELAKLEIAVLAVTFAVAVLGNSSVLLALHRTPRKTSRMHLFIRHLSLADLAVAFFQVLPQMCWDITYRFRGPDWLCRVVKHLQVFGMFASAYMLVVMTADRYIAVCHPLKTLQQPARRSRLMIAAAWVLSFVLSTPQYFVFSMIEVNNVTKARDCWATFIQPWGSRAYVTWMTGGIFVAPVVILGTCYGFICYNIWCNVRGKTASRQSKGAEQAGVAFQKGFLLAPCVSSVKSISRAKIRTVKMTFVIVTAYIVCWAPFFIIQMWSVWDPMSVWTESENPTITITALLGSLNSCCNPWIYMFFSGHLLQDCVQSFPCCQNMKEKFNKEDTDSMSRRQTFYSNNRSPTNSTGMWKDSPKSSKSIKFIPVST

With `O=C(O)CCNc1cc(N2CCc3ccccc3CC2)nc(-c2ccccn2)n1`, the XC50 was above 100 µM in data set [1]; above 100 µM in data set [2]; above 50 µM on Prolyl hydroxylase EGLN3; 50 µM in data set [3]; above 63 µM in data set [4]; above 300 µM on Histone deacetylase 2. The XC50 in data set [5] is 25 µM; at hERG (KCNH2), 8 µM; in data set [6] it was above 32 µM; at Vasopressin V1a receptor, above 50 µM; in data set [7], above 50 µM; in [8], above 16 µM. Besides, the XC50 on Histamine H1 receptor is above 40 µM; in [9], above 40 µM; at Histone deacetylase 9 it was above 300 µM; in data set [10], above 300 µM; in [11], above 16 µM.
In the case of `CCOC(=O)CCNc1cc(N2CCc3ccccc3CC2)nc(-c2cccnc2)n1`, the Activity turned out to be 5856 a.u in the data set with Macrophage [12]; 45 a.u with Macrophage [13]; 6886 a.u in the data set on Macrophage [14]; 2746 a.u in the data set on Macrophage [15]; 121 a.u in the data set on Macrophage [16]; 110 a.u with Macrophage [17]. The Activity in the data set with Macrophage [18] stood at 512 a.u; in the data set on Macrophage [19] it was 64 a.u; with Macrophage [20] it was 1003 a.u; in the data set on Macrophage [21], 1235 a.u; with Macrophage [22], 9224 a.u; with Macrophage [23], 211785 a.u. Besides, the Activity with Macrophage [24] was found to be 1352294 a.u; in the data set on Macrophage [25], 1 a.u; in the data set on Macrophage [26], 2254 a.u; in the data set on Macrophage [27], 31748 a.u.
`O=C(O)CCNc1cc(N2CCc3ccccc3CC2)nc(-c2cccnc2)n1`: the XC50 in data set [1] was above 100 µM; in [2] it was above 100 µM; at Prolyl hydroxylase EGLN3, above 50 µM; in data set [3] it was 16 µM; in data set [4], above 63 µM; at Histone deacetylase 2 it was above 300 µM. Moreover, the XC50 is 25 µM in data set [5]; above 50 µM on hERG (KCNH2); above 32 µM in data set [6]; 4.9 µM on Vasopressin V1a receptor; above 50 µM in [7]; above 16 µM in [8]. For the same compound, the XC50 on Histamine H1 receptor was above 40 µM; in data set [9], above 40 µM; at Histone deacetylase 9, above 300 µM; in data set [10], above 300 µM; in data set [11], above 16 µM.
With `CCOC(=O)CCNc1cc(N2CCc3ccccc3CC2)nc(-c2ccccn2)n1`, the Activity in the data set on Macrophage [12] stood at 5493 a.u; with Macrophage [13], 19 a.u; in the data set with Macrophage [14], 5959 a.u; with Macrophage [15] it was 2627 a.u; in the data set on Macrophage [16], 1 a.u; with Macrophage [17], 31 a.u. The Activity in the data set on Macrophage [18] came out at 1586 a.u; with Macrophage [19], 15 a.u; in the data set on Macrophage [20] it was 334 a.u; with Macrophage [21], 820 a.u; in the data set on Macrophage [22], 708 a.u; with Macrophage [23], 140386 a.u. The Activity in the data set with Macrophage [24] was 1352294 a.u; with Macrophage [25] it was 25 a.u; in the data set on Macrophage [26], 233 a.u; in the data set on Macrophage [27], 4765 a.u.

(Values after ChEMBL document CHEMBL5678807, “A selective jumonji H3K27 demethylase inhibitor modulates the proinflammatory macrophage response” (Nature, 2012).)
